34 compounds from patent US10532995B2, “Substituted pyrazole compounds as serine protease inhibitors” (VERSEON CORPORATION, priority 2015, dated 2020) can be followed below.

Molecules are shown by their SMILES. pIC50: −log10 of the molar value. Counter-ions that a name gives are not always drawn.

The target in the assay is T1, Human thrombin (Homo sapiens, UniProt P00734).
T1 construct: purchased Haematologic Technologies Inc
Kind of assay: Thrombin protease activity inhibition, chromogenic substrate S-2238. It counts as biochemical. To be noted: 3 nM thrombin, 125 μM S-2238, 10 min pre-incubation, RT. The essentials: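 Ten-point, three-fold serial dilutions of compound tested against 3 nM enzyme at RT in Tris buffer (0.05 M, pH 7.4) with 0.015 M NaCl and 0.01% PEG-8000.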
Turning to `C=CCOC(=O)N1CCN(C(=O)N2CCOCC2)CC1c1cc(NCc2ccc(Cl)s2)n(C(=O)c2cscn2)n1` (stereo not shown) [Entry 240, prop-2-en-1-yl 2-(5-[(5-chlorothiophen-2-yl)methyl]amino-1-(1,3-thiazole-4-carbonyl)-1H-pyrazol-3-yl)-4-(morpholine-4-carbonyl)piperazine-1-carboxylate], the negative logarithm of the IC50 (pIC50) – broadly, −log10 of the IC50, conventionally taken in molar units – was 6.00 to 7.00.
Next, `CC1(c2cc(NCc3ccc(Cl)s3)n(C(=O)c3ccsc3)n2)CCNC1=O` (stereo not shown) [Entry 124, 3-(5-[(5-chlorothiophen-2-yl)methyl]amino-1-(thiophene-3-carbonyl)-1H-pyrazol-3-yl)-3-methylpyrrolidin-2-one]: 6.00 to 7.00; `CC(C)(C)OC(=O)N1CCCC1(C)c1cc(NCc2ccc(Cl)s2)n(C(=O)C(C)(C)CO)n1` (stereo not shown) [Entry 274, tert-butyl 2-(5-[(5-chlorothiophen-2-yl)methyl]amino-1-(3-hydroxy-2,2-dimethylpropanoyl)-1H-pyrazol-3-yl)-2-methylpyrrolidine-1-carboxylate]: 6.00 to 7.00.
Next, `Clc1ccc(CNc2cc(C3CCCNC3)n[nH]2)s1` (stereo not shown) [Entry 186, N-[(5-chlorothiophen-2-yl)methyl]-3-(piperidin-3-yl)-1H-pyrazol-5-amine]: 5.00 to 6.00; `CC(C)(C)C(=O)N1CC(c2cc(NCc3ccc(Cl)s3)[nH]n2)C1` [Entry 97, 1-[3-(5-[(5-chlorothiophen-2-yl)methyl]amino-1H-pyrazol-3-yl)azetidin-1-yl]-2,2-dimethylpropan-1-one]: less than 4.00; `CN(C)S(=O)(=O)N1CCC(c2cc(NCc3ccc(Cl)s3)[nH]n2)CC1` [Entry 138, 4-(5-[(5-chlorothiophen-2-yl)methyl]amino-1H-pyrazol-3-yl)-N,N-dimethylpiperidine-1-sulfonamide]: less than 4.00.
Then `COc1ccccc1C(=O)n1nc(C2CNC2)cc1NCc1ccc(Cl)s1` [Entry 127, 3-(azetidin-3-yl)-N-[(5-chlorothiophen-2-yl)methyl]-1-(2-methoxybenzoyl)-1H-pyrazol-5-amine hydrochloride], with 4.00 to 5.00; and `CN1CCC(C)(C(=O)n2nc(C3CCN(C(=O)N4CCOCC4)CC3)cc2NCc2ccc(Cl)s2)CC1` [Entry 142, N-[(5-chlorothiophen-2-yl)methyl]-1-(1,4-dimethylpiperidine-4-carbonyl)-3-[1-(morpholine-4-carbonyl)piperidin-4-yl]-1H-pyrazol-5-amine; formic acid], with 6.00 to 7.00.
For the compound `CS(=O)(=O)N1C2CCC1CC(c1cc(NCc3ccc(Cl)s3)[nH]n1)C2` (stereo not shown) [Entry 226, N-[(5-chlorothiophen-2-yl)methyl]-3-8-methanesulfonyl-8-azabicyclo[3.2.1]octan-3-yl-1H-pyrazol-5-amine], the pIC50 is less than 4.00.
Compound `Clc1ccc(CNc2cc(C3CCN(Cc4ncon4)CC3)n[nH]2)s1` [Entry 191, N-[(5-chlorothiophen-2-yl)methyl]-3-[1-(1,2,4-oxadiazol-3-ylmethyl)piperidin-4-yl]-1H-pyrazol-5-amine] had a negative-log IC50 (pIC50) of less than 4.00.
Then `CC(C)(C)OC(=O)N1CCCC1(C)c1cc(NCc2ccc(Cl)s2)n(C(=O)c2ccsc2)n1` (stereo not shown) [Entry 276, tert-butyl 2-(5-[(5-chlorothiophen-2-yl)methyl]amino-1-(thiophene-3-carbonyl)-1H-pyrazol-3-yl)-2-methylpyrrolidine-1-carboxylate], with less than 4.00; and `CS(=O)(=O)N1CCNC(c2cc(NCc3ccc(Cl)s3)[nH]n2)C1` (stereo not shown) [Entry 179, N-[(5-chlorothiophen-2-yl)methyl]-3-(4-methanesulfonylpiperazin-2-yl)-1H-pyrazol-5-amine], with less than 4.00.
Next, `C=CCOC(=O)N1CC(c2cc(NCc3ccc(Cl)s3)n(C(=O)C(C)(C)C)n2)C1` [Entry 255, prop-2-en-1-yl 3-(5-[(5-chlorothiophen-2-yl)methyl]amino-1-(2,2-dimethylpropanoyl)-1H-pyrazol-3-yl)azetidine-1-carboxylate]: greater than 7.00; `CS(=O)(=O)N1CCC(c2cc(NCc3ccc(Cl)s3)[nH]n2)C1` (stereo not shown) [Entry 175, N-[(5-chlorothiophen-2-yl)methyl]-3-(1-methanesulfonylpyrrolidin-3-yl)-1H-pyrazol-5-amine]: less than 4.00; `CC(=O)N1CCC(c2cc(NCc3ccc(Cl)s3)n(C(=O)c3ccsc3)n2)CC1` [Entry 102, 1-[4-(5-[(5-chlorothiophen-2-yl)methyl]amino-1-(thiophene-3-carbonyl)-1H-pyrazol-3-yl)piperidin-1-yl]ethan-1-one]: 6.00 to 7.00.
Next, `C=CCOC(=O)N1CCCC(c2cc(NCc3ccc(Cl)s3)n(C(=O)c3cscn3)n2)CC1` (stereo not shown) [Entry 260, prop-2-en-1-yl 4-(5-[(5-chlorothiophen-2-yl)methyl]amino-1-(1,3-thiazole-4-carbonyl)-1H-pyrazol-3-yl)azepane-1-carboxylate]: greater than 7.00; `CC(C)(C)C(=O)N1CC(c2cc(NCc3ccc(Cl)s3)n(C(=O)C(C)(C)C)n2)C1` [Entry 96, 1-[3-(5-[(5-chlorothiophen-2-yl)methyl]amino-1-(2,2-dimethylpropanoyl)-1H-pyrazol-3-yl)azetidin-1-yl]-2,2-dimethylpropan-1-one]: 6.00 to 7.00; `O=C(N1CCOCC1)N1CCNC(c2cc(NCc3ccc(Cl)s3)[nH]n2)C1` (stereo not shown) [Entry 212, N-[(5-chlorothiophen-2-yl)methyl]-3-[4-(morpholine-4-carbonyl)piperazin-2-yl]-1H-pyrazol-5-amine hydrochloride]: less than 4.00.
Compound `Clc1ccc(CNc2cc(C3CCN(Cc4cccnc4)CC3)n[nH]2)s1` [Entry 211, N-[(5-chlorothiophen-2-yl)methyl]-3-[1-(pyridin-3-ylmethyl)piperidin-4-yl]-1H-pyrazol-5-amine] had a negative logarithm of the IC50 (pIC50) of less than 4.00.
Next, `CC(C)(C)OC(=O)N1CCC(C)(c2cc(NCc3ccc(Cl)s3)n(C(=O)C(C)(C)CO)n2)CC1` [Entry 296, tert-butyl 4-(5-[(5-chlorothiophen-2-yl)methyl]amino-1-(3-hydroxy-2,2-dimethylpropanoyl)-1H-pyrazol-3-yl)-4-methylpiperidine-1-carboxylate]: greater than 7.00.
Next, `C=CCOC(=O)N1CCC(c2cc(NCc3ccc(Cl)s3)[nH]n2)C1` (stereo not shown) [Entry 259, prop-2-en-1-yl 3-(5-[(5-chlorothiophen-2-yl)methyl]amino-1H-pyrazol-3-yl)pyrrolidine-1-carboxylate]: less than 4.00; `FC(F)(CN1CCC(c2cc(NCc3ccc(Cl)s3)[nH]n2)CC1)c1ccccn1` [Entry 222, N-[(5-chlorothiophen-2-yl)methyl]-3-1-[2,2-difluoro-2-(pyridin-2-yl)ethyl]piperidin-4-yl-1H-pyrazol-5-amine]: less than 4.00; `COCCN1CCC(c2cc(NCc3ccc(Cl)s3)[nH]n2)CC1` [Entry 200, N-[(5-chlorothiophen-2-yl)methyl]-3-[1-(2-methoxyethyl)piperidin-4-yl]-1H-pyrazol-5-amine]: less than 4.00.
Then `Clc1ccc(CNc2cc(C3CC4CCC(C3)N4)n[nH]2)s1` (stereo not shown) [Entry 131, 3-8-azabicyclo[3.2.1]octan-3-yl-N-[(5-chlorothiophen-2-yl)methyl]-1H-pyrazol-5-amine], with less than 4.00.
In turn, `O=C(CN1CCC(c2cc(NCc3ccc(Cl)s3)[nH]n2)CC1)N1CCOCC1` [Entry 111, 2-[4-(5-[(5-chlorothiophen-2-yl)methyl]amino-1H-pyrazol-3-yl)piperidin-1-yl]-1-(morpholin-4-yl)ethan-1-one] had a pIC50 of less than 4.00.
Then `CC1(c2cc(NCc3ccc(Cl)s3)n(C(=O)c3ccsc3)n2)CCCN1` (stereo not shown) [Entry 177, N-[(5-chlorothiophen-2-yl)methyl]-3-(2-methylpyrrolidin-2-yl)-1-(thiophene-3-carbonyl)-1H-pyrazol-5-amine; formic acid], with greater than 7.00.
In turn, `CS(=O)(=O)N1CCC(c2cc(NCc3ccc(Cl)s3)[nH]n2)CC1` [Entry 173, N-[(5-chlorothiophen-2-yl)methyl]-3-(1-methanesulfonylpiperidin-4-yl)-1H-pyrazol-5-amine] showed a pIC50 of less than 4.00.
Next, `CC(C)(C)OC(=O)N1CCCC(C)(c2cc(NCc3ccc(Cl)s3)n(C(=O)C3(C)CCOCC3)n2)C1` (stereo not shown) [Entry 286, tert-butyl 3-(5-[(5-chlorothiophen-2-yl)methyl]amino-1-(4-methyloxane-4-carbonyl)-l H-pyrazol-3-yl)-3-methylpiperidine-1-carboxylate]: 6.00 to 7.00; `O=C(O)CN1CCC(c2cc(NCc3ccc(Cl)s3)[nH]n2)CC1` [Entry 112, 2-[4-(5-[(5-chlorothiophen-2-yl)methyl]amino-1H-pyrazol-3-yl)piperidin-1-yl]acetic acid]: less than 4.00.
Next, `Clc1ccc(CNc2cc(C3CCN(Cc4nnn[nH]4)CC3)n[nH]2)s1` [Entry 195, N-[(5-chlorothiophen-2-yl)methyl]-3-[1-(1H-1,2,3,4-tetrazol-5-ylmethyl)piperidin-4-yl]-1H-pyrazol-5-amine]: 5.00 to 6.00; `COc1ccccc1C(=O)n1nc(C2(C)CCCN2)cc1NCc1ccc(Cl)s1` (stereo not shown) [Entry 152, N-[(5-chlorothiophen-2-yl)methyl]-1-(2-methoxybenzoyl)-3-(2-methylpyrrolidin-2-yl)-1H-pyrazol-5-amine; formic acid]: 6.00 to 7.00; `COc1ccccc1C(=O)n1nc(C2CCN(C(=O)OC(C)(C)C)CC2)cc1NCc1ccc(Cl)s1` [Entry 295, tert-butyl 4-(5-[(5-chlorothiophen-2-yl)methyl]amino-1-(2-methoxybenzoyl)-1H-pyrazol-3-yl)piperidine-1-carboxylate]: greater than 7.00.
Then `C=CCOC(=O)N1CCC(c2n[nH]c(NCc3ccc(Cl)s3)c2F)CC1` [Entry 269, prop-2-en-1-yl 4-(5-[(5-chlorothiophen-2-yl)methyl]amino-4-fluoro-1H-pyrazol-3-yl)piperidine-1-carboxylate], with less than 4.00.
Take `Clc1ccc(CNc2cc(C3CCN(CC4CC4)CC3)n[nH]2)s1` [Entry 201, N-[(5-chlorothiophen-2-yl)methyl]-3-[1-(cyclopropylmethyl)piperidin-4-yl]-1H-pyrazol-5-amine]: the pIC50 is less than 4.00.
